Experiment in all cases: in vivo yeast assay, GC-MS of products
One assay deals with T1, CYP72A559 (Medicago truncatula, UniProt A0A5P8TXY6).
T1 construct: full length, expressed in S. cerevisiae INVSc1 with Lotus japonicus CPR and beta-amyrin synthase OSC1
T1 sequence (A0A5P8TXY6 1-518): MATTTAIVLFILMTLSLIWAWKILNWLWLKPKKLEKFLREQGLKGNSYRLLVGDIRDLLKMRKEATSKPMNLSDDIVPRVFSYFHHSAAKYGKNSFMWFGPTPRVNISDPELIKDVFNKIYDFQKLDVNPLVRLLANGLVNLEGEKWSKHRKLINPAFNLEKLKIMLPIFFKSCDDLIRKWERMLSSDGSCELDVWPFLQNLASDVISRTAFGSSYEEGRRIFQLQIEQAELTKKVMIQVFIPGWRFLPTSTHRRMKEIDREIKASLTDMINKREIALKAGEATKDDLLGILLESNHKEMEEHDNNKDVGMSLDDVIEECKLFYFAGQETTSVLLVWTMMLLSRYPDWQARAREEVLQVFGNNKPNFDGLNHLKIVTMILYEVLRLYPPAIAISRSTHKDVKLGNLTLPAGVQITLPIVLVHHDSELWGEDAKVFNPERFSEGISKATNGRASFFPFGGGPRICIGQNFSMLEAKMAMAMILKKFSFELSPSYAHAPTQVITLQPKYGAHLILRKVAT
In kind it is cell-based. The settings on record: beta-amyrin formed in the cell by co-expressed OSC1; L. japonicus CPR; 30°C, 4 days.

A further assay concerns the target T2, TpCYP72A699 (Trifolium pratense, UniProt A0A5P8TXT7).
T2 construct: gene CYP72A699; full length, expressed in S. cerevisiae INVSc1 with Lotus japonicus CPR and beta-amyrin synthase OSC1
The assay is classed as cell-based. The conditions noted are these: beta-amyrin formed in the cell by co-expressed OSC1; L. japonicus CPR; 30°C, 4 days.

In the next assay the target is T3, CYP72A560 (Medicago truncatula, UniProt A0A5P8TXP5).
T3 construct: full length, expressed in S. cerevisiae INVSc1 with Lotus japonicus CPR and beta-amyrin synthase OSC1
The assay is classed as cell-based. The conditions noted are these: beta-amyrin formed in the cell by co-expressed OSC1; L. japonicus CPR; 30°C, 4 days.

The next assay concerns the target T4, LjCYP72A697 (Lotus japonicus, UniProt A0A5P8TXS9).
T4 construct: gene CYP72A697; full length, expressed in S. cerevisiae INVSc1 with Lotus japonicus CPR and beta-amyrin synthase OSC1
The assay is classed as cell-based. The conditions noted are these: beta-amyrin formed in the cell by co-expressed OSC1; L. japonicus CPR; 30°C, 4 days.

Assay [1] has as its target T5, CYP72A63 (Medicago truncatula, UniProt H1A981).
T5 construct: full length, expressed in S. cerevisiae INVSc1 with Lotus japonicus CPR and beta-amyrin synthase OSC1
T5 sequence (H1A981 1-524): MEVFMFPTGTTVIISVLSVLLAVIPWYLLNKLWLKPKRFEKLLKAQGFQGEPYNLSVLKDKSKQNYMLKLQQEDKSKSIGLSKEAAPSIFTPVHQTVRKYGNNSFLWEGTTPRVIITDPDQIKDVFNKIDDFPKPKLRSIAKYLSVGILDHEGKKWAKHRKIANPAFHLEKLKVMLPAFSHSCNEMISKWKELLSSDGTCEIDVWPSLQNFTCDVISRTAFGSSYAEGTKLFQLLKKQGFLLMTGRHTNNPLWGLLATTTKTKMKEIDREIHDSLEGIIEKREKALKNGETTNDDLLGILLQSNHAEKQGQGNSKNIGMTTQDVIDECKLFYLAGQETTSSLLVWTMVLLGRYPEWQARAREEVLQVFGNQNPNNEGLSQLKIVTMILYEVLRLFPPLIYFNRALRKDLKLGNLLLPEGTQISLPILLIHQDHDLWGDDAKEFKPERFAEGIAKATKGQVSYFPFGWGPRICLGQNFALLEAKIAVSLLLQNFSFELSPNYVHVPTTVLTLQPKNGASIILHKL
The assay is classed as cell-based. The conditions noted are these: beta-amyrin formed in the cell by co-expressed OSC1; L. japonicus CPR; 30°C, 4 days.

A further assay deals with T6, GuCYP72A154 (Glycyrrhiza uralensis, UniProt H1A988).
T6 construct: gene CYP72A154; full length, expressed in S. cerevisiae INVSc1 with Lotus japonicus CPR and beta-amyrin synthase OSC1
In kind it is cell-based. The conditions noted are these: beta-amyrin formed in the cell by co-expressed OSC1; L. japonicus CPR; 30°C, 4 days.

The target in the next assay is T7, VaCYP72A694 (Vigna angularis, UniProt A0A5P8TXJ3).
T7 construct: gene CYP72A694; full length, expressed in S. cerevisiae INVSc1 with Lotus japonicus CPR and beta-amyrin synthase OSC1
The assay is classed as cell-based. The conditions noted are these: beta-amyrin formed in the cell by co-expressed OSC1; L. japonicus CPR; 30°C, 4 days.

The target of a further assay is T8, Gmax CYP72A141 (Glycine max, UniProt A0A5P8TY68).
T8 construct: full length, expressed in S. cerevisiae INVSc1 with Lotus japonicus CPR and beta-amyrin synthase OSC1
In kind it is cell-based. The settings on record: beta-amyrin formed in the cell by co-expressed OSC1; L. japonicus CPR; 30°C, 4 days.

In assay [2] the target is T9, CYP72A63 (Medicago truncatula, UniProt H1A981, L149V/L398V).
T9 construct: full length, expressed in S. cerevisiae INVSc1 with Lotus japonicus CPR and beta-amyrin synthase OSC1
The assay is classed as cell-based. The conditions noted are these: beta-amyrin formed in the cell by co-expressed OSC1; L. japonicus CPR; 30°C, 4 days.

The next assay deals with T10, CYP72A61v2 (Medicago truncatula, UniProt H1A980).
T10 construct: full length, expressed in S. cerevisiae INVSc1 with Lotus japonicus CPR and beta-amyrin synthase OSC1
The assay is classed as cell-based. The conditions noted are these: beta-amyrin formed in the cell by co-expressed OSC1; L. japonicus CPR; 30°C, 4 days.

The target in the next assay is T11, CYP72A66v2 (Medicago truncatula, UniProt A0A5P8TY60).
T11 construct: full length, expressed in S. cerevisiae INVSc1 with Lotus japonicus CPR and beta-amyrin synthase OSC1
The assay is classed as cell-based. The settings on record: beta-amyrin formed in the cell by co-expressed OSC1; L. japonicus CPR; 30°C, 4 days.

For a further assay, the target named is T12, PvCYP72A302 (Phaseolus vulgaris, UniProt A0A5P8TXN3).
T12 construct: gene CYP72A302; full length, expressed in S. cerevisiae INVSc1 with Lotus japonicus CPR and beta-amyrin synthase OSC1
In kind it is cell-based. The settings on record: beta-amyrin formed in the cell by co-expressed OSC1; L. japonicus CPR; 30°C, 4 days.

A further assay concerns the target T13, GpCYP72A154 (Glycyrrhiza pallidiflora, UniProt A0A5P8TXI9).
T13 construct: gene CYP72A154; full length, expressed in S. cerevisiae INVSc1 with Lotus japonicus CPR and beta-amyrin synthase OSC1
T13 sequence (A0A5P8TXI9 1-523): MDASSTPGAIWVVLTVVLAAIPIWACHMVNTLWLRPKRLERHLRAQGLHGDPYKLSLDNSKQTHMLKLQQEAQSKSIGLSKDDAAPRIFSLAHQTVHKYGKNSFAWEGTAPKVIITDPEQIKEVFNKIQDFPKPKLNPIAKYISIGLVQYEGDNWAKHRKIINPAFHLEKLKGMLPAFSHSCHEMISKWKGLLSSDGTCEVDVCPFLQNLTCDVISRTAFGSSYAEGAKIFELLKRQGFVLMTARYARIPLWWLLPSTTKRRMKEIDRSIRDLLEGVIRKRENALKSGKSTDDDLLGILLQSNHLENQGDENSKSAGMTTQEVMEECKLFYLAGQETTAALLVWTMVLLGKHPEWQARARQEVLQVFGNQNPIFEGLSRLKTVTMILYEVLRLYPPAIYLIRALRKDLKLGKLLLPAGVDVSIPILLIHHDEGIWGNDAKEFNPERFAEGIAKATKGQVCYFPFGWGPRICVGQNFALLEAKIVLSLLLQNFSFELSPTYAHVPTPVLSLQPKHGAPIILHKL
The assay is classed as cell-based. The conditions noted are these: beta-amyrin formed in the cell by co-expressed OSC1; L. japonicus CPR; 30°C, 4 days.

The target of another assay is T14, GgCYP72A154 (Glycyrrhiza glabra, UniProt A0A5P8TXJ1).
T14 construct: gene CYP72A154; full length, expressed in S. cerevisiae INVSc1 with Lotus japonicus CPR and beta-amyrin synthase OSC1
T14 sequence (A0A5P8TXJ1 1-523): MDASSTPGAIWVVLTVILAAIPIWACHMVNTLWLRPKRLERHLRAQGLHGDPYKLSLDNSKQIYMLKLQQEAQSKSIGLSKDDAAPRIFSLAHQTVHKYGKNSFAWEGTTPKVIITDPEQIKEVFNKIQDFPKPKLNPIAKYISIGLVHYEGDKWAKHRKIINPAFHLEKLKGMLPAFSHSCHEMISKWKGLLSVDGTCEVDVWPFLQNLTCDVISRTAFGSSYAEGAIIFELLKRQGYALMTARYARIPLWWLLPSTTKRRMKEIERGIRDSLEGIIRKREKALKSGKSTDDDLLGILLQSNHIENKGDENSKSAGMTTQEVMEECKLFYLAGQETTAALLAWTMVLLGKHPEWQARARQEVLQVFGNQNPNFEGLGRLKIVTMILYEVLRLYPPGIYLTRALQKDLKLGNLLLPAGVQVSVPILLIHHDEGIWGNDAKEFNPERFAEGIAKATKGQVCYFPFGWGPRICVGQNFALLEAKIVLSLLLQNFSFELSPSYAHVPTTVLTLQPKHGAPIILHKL
The assay is classed as cell-based. The settings on record: beta-amyrin formed in the cell by co-expressed OSC1; L. japonicus CPR; 30°C, 4 days.

The next assay addresses T15, CYP72A62v2 (Medicago truncatula, UniProt H1A982, V149L/V398L).
T15 construct: full length, expressed in S. cerevisiae INVSc1 with Lotus japonicus CPR and beta-amyrin synthase OSC1
The conditions noted are these: beta-amyrin formed in the cell by co-expressed OSC1; L. japonicus CPR; 30°C, 4 days; CYP72A63-based numbering.

T7 sequence (A0A5P8TXJ3 entry or part of it): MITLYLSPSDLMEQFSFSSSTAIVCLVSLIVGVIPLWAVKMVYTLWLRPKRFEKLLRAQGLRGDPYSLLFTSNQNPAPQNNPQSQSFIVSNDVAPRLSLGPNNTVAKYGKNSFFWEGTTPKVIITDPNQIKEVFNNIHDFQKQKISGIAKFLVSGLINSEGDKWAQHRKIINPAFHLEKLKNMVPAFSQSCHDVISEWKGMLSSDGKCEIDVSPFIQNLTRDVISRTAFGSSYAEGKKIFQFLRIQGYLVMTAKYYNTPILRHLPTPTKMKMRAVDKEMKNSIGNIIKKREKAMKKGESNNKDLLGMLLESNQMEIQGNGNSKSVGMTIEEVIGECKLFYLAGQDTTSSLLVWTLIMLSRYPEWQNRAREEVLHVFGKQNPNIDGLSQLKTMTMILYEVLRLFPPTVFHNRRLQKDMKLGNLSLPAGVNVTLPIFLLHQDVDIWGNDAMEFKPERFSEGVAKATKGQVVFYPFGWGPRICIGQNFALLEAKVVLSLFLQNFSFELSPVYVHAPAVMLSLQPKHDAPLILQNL
T4 sequence (A0A5P8TXS9 entry or part of it): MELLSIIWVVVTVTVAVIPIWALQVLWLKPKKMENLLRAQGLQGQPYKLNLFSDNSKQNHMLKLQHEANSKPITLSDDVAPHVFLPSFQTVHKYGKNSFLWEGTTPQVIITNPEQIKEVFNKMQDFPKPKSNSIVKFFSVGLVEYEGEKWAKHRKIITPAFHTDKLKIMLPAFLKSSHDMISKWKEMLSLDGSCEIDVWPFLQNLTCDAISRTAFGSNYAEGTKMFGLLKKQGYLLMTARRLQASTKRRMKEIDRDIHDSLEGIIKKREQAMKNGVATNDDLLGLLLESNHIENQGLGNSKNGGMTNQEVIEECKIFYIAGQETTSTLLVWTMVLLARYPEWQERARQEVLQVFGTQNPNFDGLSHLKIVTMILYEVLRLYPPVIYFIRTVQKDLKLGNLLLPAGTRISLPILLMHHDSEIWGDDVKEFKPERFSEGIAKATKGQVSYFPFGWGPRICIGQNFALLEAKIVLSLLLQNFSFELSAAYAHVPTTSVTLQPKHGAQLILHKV
T11 sequence (A0A5P8TY60 entry or part of it): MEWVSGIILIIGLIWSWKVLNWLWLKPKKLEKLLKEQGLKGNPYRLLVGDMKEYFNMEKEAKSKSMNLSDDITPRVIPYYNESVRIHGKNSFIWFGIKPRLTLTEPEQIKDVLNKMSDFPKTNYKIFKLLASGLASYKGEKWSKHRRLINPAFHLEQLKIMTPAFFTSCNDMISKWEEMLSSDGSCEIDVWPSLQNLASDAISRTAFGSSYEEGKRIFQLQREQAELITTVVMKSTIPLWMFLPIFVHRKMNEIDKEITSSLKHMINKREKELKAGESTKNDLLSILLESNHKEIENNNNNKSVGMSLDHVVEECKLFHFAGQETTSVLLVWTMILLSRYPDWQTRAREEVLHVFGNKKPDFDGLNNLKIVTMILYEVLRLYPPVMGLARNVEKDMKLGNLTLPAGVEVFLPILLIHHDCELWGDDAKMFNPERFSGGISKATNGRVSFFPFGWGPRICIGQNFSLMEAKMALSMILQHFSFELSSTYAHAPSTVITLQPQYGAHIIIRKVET
T6 sequence (H1A988 whole entry): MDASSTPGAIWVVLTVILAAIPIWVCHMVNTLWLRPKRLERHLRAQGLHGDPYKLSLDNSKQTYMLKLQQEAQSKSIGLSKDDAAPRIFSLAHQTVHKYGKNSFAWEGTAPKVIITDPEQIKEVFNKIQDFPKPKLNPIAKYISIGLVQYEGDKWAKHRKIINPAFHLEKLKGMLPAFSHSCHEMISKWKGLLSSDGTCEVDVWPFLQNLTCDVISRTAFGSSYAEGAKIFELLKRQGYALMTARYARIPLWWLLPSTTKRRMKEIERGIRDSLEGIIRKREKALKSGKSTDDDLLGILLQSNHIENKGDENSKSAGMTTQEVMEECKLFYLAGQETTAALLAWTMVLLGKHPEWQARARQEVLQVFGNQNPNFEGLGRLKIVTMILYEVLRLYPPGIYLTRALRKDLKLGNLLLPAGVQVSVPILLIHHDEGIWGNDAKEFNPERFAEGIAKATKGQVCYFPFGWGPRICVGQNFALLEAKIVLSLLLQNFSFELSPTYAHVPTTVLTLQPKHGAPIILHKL
T3 sequence (A0A5P8TXP5 1-518): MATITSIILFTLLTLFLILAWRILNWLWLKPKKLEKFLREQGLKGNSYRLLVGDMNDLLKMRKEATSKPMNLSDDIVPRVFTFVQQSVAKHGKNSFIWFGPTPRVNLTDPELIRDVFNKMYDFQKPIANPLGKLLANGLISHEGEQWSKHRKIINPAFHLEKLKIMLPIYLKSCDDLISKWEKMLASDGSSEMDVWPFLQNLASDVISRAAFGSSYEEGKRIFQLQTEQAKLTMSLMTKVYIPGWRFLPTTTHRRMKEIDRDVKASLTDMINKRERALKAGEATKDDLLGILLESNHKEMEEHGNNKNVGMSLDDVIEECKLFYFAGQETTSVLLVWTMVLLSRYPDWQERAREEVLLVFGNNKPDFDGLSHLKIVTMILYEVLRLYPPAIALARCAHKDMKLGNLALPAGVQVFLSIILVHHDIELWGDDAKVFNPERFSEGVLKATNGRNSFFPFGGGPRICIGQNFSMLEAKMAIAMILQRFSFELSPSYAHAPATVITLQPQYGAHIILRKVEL
T9 sequence (H1A981 whole entry L149V/L398V, the tested form may be a part): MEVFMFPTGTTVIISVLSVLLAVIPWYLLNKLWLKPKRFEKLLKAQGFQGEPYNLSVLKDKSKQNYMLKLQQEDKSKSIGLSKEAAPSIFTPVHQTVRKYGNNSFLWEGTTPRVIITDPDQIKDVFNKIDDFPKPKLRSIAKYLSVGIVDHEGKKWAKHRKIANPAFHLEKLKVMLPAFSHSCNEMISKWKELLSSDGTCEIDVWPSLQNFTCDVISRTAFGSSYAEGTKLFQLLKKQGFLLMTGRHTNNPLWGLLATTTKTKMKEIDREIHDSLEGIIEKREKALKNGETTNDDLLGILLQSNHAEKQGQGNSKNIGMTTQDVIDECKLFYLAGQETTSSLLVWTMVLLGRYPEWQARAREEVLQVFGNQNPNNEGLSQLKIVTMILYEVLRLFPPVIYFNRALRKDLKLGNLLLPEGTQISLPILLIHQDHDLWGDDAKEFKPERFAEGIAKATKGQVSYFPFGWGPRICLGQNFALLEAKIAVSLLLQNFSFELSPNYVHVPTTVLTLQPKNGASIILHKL
T10 sequence (H1A980 entry or part of it): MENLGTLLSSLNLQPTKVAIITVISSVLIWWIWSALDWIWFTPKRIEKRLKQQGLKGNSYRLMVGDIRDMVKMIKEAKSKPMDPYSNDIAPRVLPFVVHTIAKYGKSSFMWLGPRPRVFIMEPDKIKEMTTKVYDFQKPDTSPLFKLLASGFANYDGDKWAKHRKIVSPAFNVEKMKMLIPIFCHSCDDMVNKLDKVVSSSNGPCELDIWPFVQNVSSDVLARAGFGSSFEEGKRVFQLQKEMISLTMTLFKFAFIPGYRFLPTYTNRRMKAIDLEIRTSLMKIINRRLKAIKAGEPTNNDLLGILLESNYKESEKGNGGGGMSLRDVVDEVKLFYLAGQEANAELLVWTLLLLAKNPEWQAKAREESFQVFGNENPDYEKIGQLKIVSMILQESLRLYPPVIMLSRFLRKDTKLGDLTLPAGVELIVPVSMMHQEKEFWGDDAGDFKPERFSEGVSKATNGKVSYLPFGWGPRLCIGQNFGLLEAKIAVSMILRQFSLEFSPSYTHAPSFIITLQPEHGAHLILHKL
T15 sequence (H1A982 entry or part of it V149L/V398L): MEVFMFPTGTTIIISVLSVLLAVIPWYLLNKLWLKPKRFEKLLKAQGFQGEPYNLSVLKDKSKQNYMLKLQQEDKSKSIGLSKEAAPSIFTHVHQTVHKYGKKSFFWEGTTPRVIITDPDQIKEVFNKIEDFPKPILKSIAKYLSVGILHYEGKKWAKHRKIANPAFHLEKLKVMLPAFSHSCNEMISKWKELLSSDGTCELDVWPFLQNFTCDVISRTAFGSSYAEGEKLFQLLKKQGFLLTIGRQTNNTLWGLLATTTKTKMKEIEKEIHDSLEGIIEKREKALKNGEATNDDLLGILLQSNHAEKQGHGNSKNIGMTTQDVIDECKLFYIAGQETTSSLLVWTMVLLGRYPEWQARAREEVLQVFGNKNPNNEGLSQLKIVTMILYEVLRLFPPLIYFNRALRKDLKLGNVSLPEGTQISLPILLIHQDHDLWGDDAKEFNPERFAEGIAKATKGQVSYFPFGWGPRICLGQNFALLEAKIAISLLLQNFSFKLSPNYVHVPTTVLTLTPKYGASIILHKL
T8 sequence (A0A5P8TY68 1-520): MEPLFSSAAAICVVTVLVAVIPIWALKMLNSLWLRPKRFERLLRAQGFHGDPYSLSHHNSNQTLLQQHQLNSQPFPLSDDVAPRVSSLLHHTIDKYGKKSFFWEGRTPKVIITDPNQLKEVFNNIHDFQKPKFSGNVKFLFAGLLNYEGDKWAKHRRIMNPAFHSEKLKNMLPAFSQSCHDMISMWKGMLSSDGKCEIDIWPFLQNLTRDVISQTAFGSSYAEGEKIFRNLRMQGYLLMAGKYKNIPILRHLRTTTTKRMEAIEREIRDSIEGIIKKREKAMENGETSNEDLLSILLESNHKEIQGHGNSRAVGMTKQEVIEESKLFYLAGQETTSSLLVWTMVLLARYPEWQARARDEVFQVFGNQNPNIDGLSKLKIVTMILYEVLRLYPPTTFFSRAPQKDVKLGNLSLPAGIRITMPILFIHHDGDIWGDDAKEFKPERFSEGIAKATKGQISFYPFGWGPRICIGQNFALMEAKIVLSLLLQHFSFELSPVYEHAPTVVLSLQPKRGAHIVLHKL

Turning to `CC1(C)CC[C@]2(C)CC[C@]3(C)C(=CC[C@@H]4[C@@]5(C)CC[C@H](O)C(C)(C)[C@@H]5CC[C@]43C)[C@@H]2C1` [β-amyrin], the “in vivo yeast assay, GC-MS of products” value is “CYP72A559 and CYP72A560 showed oxidation activity against β-amyrin at the D or E ring” at CYP72A559; “regioselectivity in the C-29 position was common among them” at TpCYP72A699; “CYP72A559 and CYP72A560 showed oxidation activity against β-amyrin at the D or E ring” on CYP72A560; “in vivo enzymatic assays showed that they have regioselectivity in the C-29 position” on LjCYP72A697; “CYP72A63 showed oxidation activity against β-amyrin at the C-30 position” at CYP72A63 [1]; “GuCYP72A154 and GgCYP72A154 oxidized β-amyrin with less regioselectivity at the D or E ring” at GuCYP72A154. Moreover, the “in vivo yeast assay, GC-MS of products” value is “in vivo enzymatic assays showed that they have regioselectivity in the C-29 position” at VaCYP72A694; “in vivo enzymatic assays showed that they have regioselectivity in the C-29 position” on Gmax CYP72A141; “CYP72A63^L149V/L398V and CYP72A63^L149V/L398I had altered product regioselectivity resembling their counterparts” on CYP72A63 [2]; “showed oxidation activity against β-amyrin at position C-22β, producing sophoradiol” on CYP72A61v2; “β-Amyrin C-22β oxidation activity was also detected in CYP72A66v2 (subgroup III)” on CYP72A66v2; “regioselectivity in the C-29 position was common among them” on PvCYP72A302. Moreover, the “in vivo yeast assay, GC-MS of products” value was “the non-glycyrrhizin-producing species GpCYP72A154 oxidized β-amyrin” at GpCYP72A154; “GuCYP72A154 and GgCYP72A154 oxidized β-amyrin with less regioselectivity at the D or E ring” at GgCYP72A154; “CYP72A62v2^V149L/V398L produced only C-30 oxidized products, 30-hydroxy-β-amyrin and 11-deoxoglycyrrhetinic acid” at CYP72A62v2.

The record behind these values is article PMC6901910, “Molecular Basis of C-30 Product Regioselectivity of Legume Oxidases Involved in High-Value Triterpenoid Biosynthesis” (Frontiers in Plant Science, 2019).
